Results taken from patent publication US20260240931A1 (priority 2022, published 2026).

Assays:
[1] = tested on: human hair follicle dermal papilla cells (HDPs); settings: 100 nM
Method: C57BL/6 mice (male, five weeks old) were purchased from Orient Bio. In addition, the mice were raised with sufficient water and food. The animal experiment of the present disclosure was performed in accordance with the guidelines ([…]-2021 Jul. 18-1) of the Institutional Animal Care and Use Committee (IACUC) at Sungkyunkwan University. The HDP cells were cultured in a HDP growth medium under conditions of 37° C. and 5% CO2.
Cell proliferation analysis was performed in the presence or absence of dihydrotestosterone ([…]). […] The optical density was detected at 540 nm.

[2] = tested on: testosterone-induced androgenetic alopecia model; experiment: testosterone-induced androgenetic alopecia model: hair growth, skin color score, hair type frequency, hair thickness; assay type: in vivo, C57BL/6 mice; settings: on 1 week
Method: A testosterone-induced androgenetic alopecia model was fabricated using C57BL/6 mice. C57BL/6 mice (n=6) were divided into the following five groups: Normal group, Vehicle control group: Experimental group treated with 40 μg/kg/week testosterone, Experimental group treated with 5 mg/day Cs-EE (Connarus semidecandrus Jack. extract according to the present disclosure), Experimental group treated with 10 mg/day Cs-EE, and Positive control group: Experimental group treated with 5 mg/kg/day finasteride. To confirm a hair growth promoting effect of Cs-EE, the dorsal part of each mouse was treated with hair removal cream and shaved using an electric clipper twice; seven and three days before the first testosterone treatment.
40 μg/kg of testosterone was dissolved in sesame oil and then subcutaneously injected once a week four times. Thereafter, in the case of the Cs-EE-treated experimental group, Cs-EE diluted with PBS and DMSO (ratio of 1:1) was applied to the back part of the mouse once every day for three weeks. As the positive control group, 5 mg of finasteride was treated instead of Cs-EE of the present disclosure. Two days after the testosterone injection, mice in all experimental groups were euthanized. Thereafter, the dorsal hairs were isolated from each experimental group to confirm hair type frequency and hair thickness. […]

Row | SMILES | cytotoxicity to HDP cells (FIG. 9B) [1] | hair growth on shaved skin (FIG. 2) [2]
1 | C[C@]12CCC(=O)C[C@@H]1CC[C@@H]1[C@@H]2CC[C@]2(C)[C@@H](O)CC[C@@H]12 [DHT, dihydrotestosterone] | cytotoxic | 
2 | CC(C)(C)NC(=O)[C@H]1CC[C@H]2[C@@H]3CC[C@H]4NC(=O)C=C[C@]4(C)[C@H]3CC[C@]12C [finasteride] |  | remained hairless
